This note sets out measurements from patent US12202832B2, “Heterocyclic compounds having a calcium-sensing receptor antagonistic activity” (TAKEDA PHARMACEUTICAL COMPANY LIMITED, priority 2017, dated 2025).

This test deals with T1, human CaSR (Homo sapiens, UniProt P41180).
T1 construct: expressed in transfected cells; host or cells: CHO cells
T1 sequence (P41180 20-1078): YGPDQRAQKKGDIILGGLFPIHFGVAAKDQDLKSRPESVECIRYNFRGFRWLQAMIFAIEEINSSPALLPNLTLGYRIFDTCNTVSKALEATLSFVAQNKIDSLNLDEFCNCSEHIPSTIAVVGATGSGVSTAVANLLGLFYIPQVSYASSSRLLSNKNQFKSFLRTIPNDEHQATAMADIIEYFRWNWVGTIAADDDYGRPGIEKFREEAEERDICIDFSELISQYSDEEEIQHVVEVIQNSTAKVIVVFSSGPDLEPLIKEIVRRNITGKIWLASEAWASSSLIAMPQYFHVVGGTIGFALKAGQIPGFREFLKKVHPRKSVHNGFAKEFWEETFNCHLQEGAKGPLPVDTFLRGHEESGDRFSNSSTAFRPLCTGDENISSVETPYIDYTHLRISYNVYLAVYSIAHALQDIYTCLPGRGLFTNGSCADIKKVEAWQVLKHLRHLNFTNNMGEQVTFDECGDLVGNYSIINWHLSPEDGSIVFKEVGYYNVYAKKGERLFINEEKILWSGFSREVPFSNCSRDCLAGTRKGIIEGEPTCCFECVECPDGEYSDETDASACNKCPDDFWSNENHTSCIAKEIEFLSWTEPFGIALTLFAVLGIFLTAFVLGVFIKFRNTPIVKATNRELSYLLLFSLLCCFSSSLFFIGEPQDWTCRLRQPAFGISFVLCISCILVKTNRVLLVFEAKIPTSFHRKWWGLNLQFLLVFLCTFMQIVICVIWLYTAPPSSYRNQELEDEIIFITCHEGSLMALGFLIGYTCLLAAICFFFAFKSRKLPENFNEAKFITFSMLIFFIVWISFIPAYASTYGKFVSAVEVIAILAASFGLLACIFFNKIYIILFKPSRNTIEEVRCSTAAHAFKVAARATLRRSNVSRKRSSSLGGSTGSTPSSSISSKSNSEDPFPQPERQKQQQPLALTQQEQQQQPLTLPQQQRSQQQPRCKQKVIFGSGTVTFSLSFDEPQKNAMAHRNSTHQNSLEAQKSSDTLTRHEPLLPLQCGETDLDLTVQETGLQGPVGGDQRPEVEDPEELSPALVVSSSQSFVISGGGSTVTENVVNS
The test is described as follows: Human CaSR antagonist activity (NFAT-Luciferase reporter in CHO cells). It is filed as cell-based. The following applies: CHO, CaCl2 final 1.3 mM, 100% = reference antagonist at 10 μM, read-out: Inhibition rate (%) at 3.3 μM. As to the method:
CaSR antagonist activity measurement was performed using Bright-Glo Luciferase assay system (Promega Corporation). CHO cells in which human CaSR and NFAT-Luciferase reporter gene were forcibly expressed were suspended in MEM alpha (Wako Pure Chemical Industries, Ltd.) containing 10% dialyzed serum (HyClone). The cells in suspension was seeded in 384-well white plate (Corning) at 10,000/20 μL/well, and cultured in an incubator of 37° C., 5% CO2 for one day. A diluent of Test compound was prepared with assay buffer (MEM alpha containing 10 mM HEPES (Life Technologies) and 10% dialysis serum). The diluent was added to the plate at 5 μL/well and allowed to stand at 37° C. for 10 minutes. Further, a diluent of 7.8 mM CaCl2 prepared with assay buffer (final concentration 1.3 mM) was added at 5 μl/well and allowed to stand in an incubator of 37° C., 5% CO2 for 2 hours. Bright-Glo reagents (Promega Corporation) were added at 10 μL/well, and the obtained mixture was stirred for 5 minutes, and then luminescence intensity was measured using Multi-label reader Envision (PerkinElmer, Inc.). The activity (%) of the test compound was calculated with the definitions in which the luminescence intensity when DMSO is added in place of the test compound is defined as 0% inhibition; and the luminescence intensity when (5R)—N-(1-ethyl-1-(4-ethylphenyl)propyl)-2,7,7-trimethyl-5-phenyl-4,5,6,7-tetrahydropyrazolo[1,5-a] Pyrimidine-3-carboxamide at final concentration of 10 μM is added is defined as 100% inhibition.
For orientation: In a reporter assay the amount or activity of a reporter protein is the signal.

By inhibition is commonly meant the drop in the measured response relative to a control, in per cent. `CCc1ccc([C@@](CC)(NC(=O)c2c(C)nn3c2N[C@@H](c2ccccc2)CC3(C)C)C(=O)N[C@@H](C)C(N)=O)cc1` [Example 1, (5R)-N-((2R)-1-(((2S)-1-Amino-1-oxopropan-2-yl)amino)-2-(4-ethylphenyl)-1-oxobutan-2-yl)-2,7,7-trimethyl-5-phenyl-4,5,6,7-tetrahydropyrazolo[1,5-a]pyrimidine-3-carboxamide]: the inhibition at 3.3 µM stood at 103%.
